Experimental data as given in PMC6942202 (Bioorganic & medicinal chemistry letters, 2019).

Tests used:
NgGCYH-IB [1] = biological target: T1, NgGCYH-IB (Neisseria gonorrhoeae, UniProt Q5F9K6); assay: Inhibition of NgGCYH-IB enzyme activity; format: biochemical, N. gonorrhoeae; conditions: in words
NgGCYH-IB [2] = biological target: T1, NgGCYH-IB; conditions: read-out: KM of NgGCYH-IB for GTP; cited from earlier work
HsGCYH-IA = biological target: T2, HsGCYH-IA (Homo sapiens, UniProt P30793); assay: Steady-state kinetic analysis of HsGCYH-IA; format: biochemical, H. sapiens; conditions: read-out: KM of HsGCYH-IA for GTP; fluorescence assay, GTP as substrate
T2 sequence (P30793 43-250 limits assumed): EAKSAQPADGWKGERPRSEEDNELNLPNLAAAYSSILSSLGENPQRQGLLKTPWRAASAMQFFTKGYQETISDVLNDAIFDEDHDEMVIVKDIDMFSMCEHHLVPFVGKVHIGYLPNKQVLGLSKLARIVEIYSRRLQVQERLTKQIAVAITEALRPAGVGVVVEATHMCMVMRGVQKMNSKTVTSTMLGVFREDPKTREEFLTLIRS

T1 sequence (Q5F9K6 whole entry): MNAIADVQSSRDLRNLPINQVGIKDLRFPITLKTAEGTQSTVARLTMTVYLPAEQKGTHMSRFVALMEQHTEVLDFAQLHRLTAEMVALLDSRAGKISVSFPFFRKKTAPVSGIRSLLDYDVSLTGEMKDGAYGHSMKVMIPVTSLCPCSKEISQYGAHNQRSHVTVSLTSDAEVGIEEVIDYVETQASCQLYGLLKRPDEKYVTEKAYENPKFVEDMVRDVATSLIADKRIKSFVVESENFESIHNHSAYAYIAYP

Nc1nc(OCCO)c2[nH]c(=O)n([C@@H]3O[C@H](CO)[C@@H](O)[C@H]3O)c2n1 [G1]
Selectivity between HsGCYH-IA and NgGCYH-IB from IC50 values (NgGCYH-IB [1]): modest selectivity for HsGCYH-IA

Nc1nc(OC[C@H](O)CO)c2[nH]c(=O)n([C@@H]3O[C@H](CO)[C@@H](O)[C@H]3O)c2n1 [G3]
Selectivity between HsGCYH-IA and NgGCYH-IB from IC50 values (NgGCYH-IB [1]): three-fold more potent against NgGCYH-IB

Nc1nc2c(ncn2[C@@H]2O[C@H](COP(=O)(O)OP(=O)(O)OP(=O)(O)O)[C@@H](O)[C@H]2O)c(=O)[nH]1 [GTP]
Km (NgGCYH-IB [2]): 9 µM
Km (HsGCYH-IA): 867 ± 57 µM
